# Test results taken from ChEMBL document CHEMBL4007488, “Amphiphilic Indole Derivatives as Antimycobacterial Agents: Structure-Activity Relationships and Membrane Targeting Properties” (J Med Chem, 2017).
# How the values were obtained:
# [1] = system: Mycobacterium tuberculosis variant bovis; experiment: Antimycobacterial activity against Mycobacterium bovis BCG ATCC 35734 after 5 days by broth dilution method; format: functional; conditions: ATCC 35734, 120 h
# [2] = system: Mycobacterium tuberculosis variant bovis; experiment: Antimycobacterial activity against Mycobacterium bovis BCG ATCC 35734 assessed as growth inhibition at 10 uM after 5 days relative to control; format: functional; conditions: ATCC 35734, 120 h, read-out: GI
Structure (SMILES),MIC50 [1] [µM],MIC90 [1] [µM],inhibition of growth at 10 µM [2] [%]
CCCCCCn1cc(CN2CCCCCC2)c2c(F)cccc21,8,13,99
CCCCCCCCn1cc(CN2CCCCCC2)c2cc(F)ccc21,4,6,99
CCCCCCCCn1cc(CN2CCCCC2)c2ccc(OC)cc21,7,13,99
CCCCCCCCn1cc(CN2CCCC2)c2cc(F)ccc21,10,24,99
CCCCCCCCn1cc(CNC23CC4CC(CC(C4)C2)C3)c2cccc(OC)c21,3,8,99
CCCCCCCCn1cc(CNC2CC2)c2cc(F)ccc21,11,27,99
CCCN(C)Cc1cn(C/C=C(\C)CCC=C(C)C)c2ccc(F)cc12,13,28.5,99
CC(C)=CCC/C(C)=C/Cn1cc(CN2CCCCC2)c2cc(Cl)ccc21,7,10,99
CCCCCCCCn1cc(CNC23CC4CC(CC(C4)C2)C3)c2c(F)cccc21,2,3,99
CC(C)=CCC/C(C)=C/Cn1cc(CN2CCCCC2)c2cc(Br)ccc21,8,10,99
CCCCCCCCn1cc(CN2CCCCCC2)c2c(OC)cccc21,6,11,99
CCCCn1cc(CN2CCCCC2)c2cc(F)ccc21,> 50,100,99
Fc1ccc2c(c1)c(CN1CCCCC1)cn2CCCc1ccccc1,10,20,99
CCCCCCCCn1cc(CN2CCOCC2)c2cc(F)ccc21,16,> 50,99
CCCCCCCCn1cc(CN2CCCCC2)c2cc(Cl)ccc21,5,9,99
CC(C)=CCC/C(C)=C/Cn1cc(CN2CCS(=O)(=O)CC2)c2cc(F)ccc21,> 50,> 50,99
CC(C)=CCC/C(C)=C/Cn1cc(CN2CCCCC2)c2ccccc21,3,6,99
Fc1cccc2[nH]cc(CN3CCCCCC3)c12,> 50,> 50,99
CCCCCCCCn1cc(CN2CCC(C)CC2)c2cccc(F)c21,4,6,99
CCCCCCCCn1cc(CN2CCC3(CC2)OCCO3)c2cc(OC)ccc21,5,9,99
CC(C)=CCC/C(C)=C/Cn1cc(CN2CCCC2)c2cc(F)ccc21,13,25,99
CCCCCCCCn1cc(CN(C)C)c2cc(F)ccc21,14,20,99
CCCCCCCCn1cc(CN(C)CCC)c2cc(F)ccc21,12,35,99
CCCCCCCCn1cc(CN2CCCCC2)c2ccc(F)cc21,6,12,99

Structure (SMILES),MIC50 [1] [µM],MIC90 [1] [µM],inhibition of growth at 10 µM [2] [%]
CCCCCCCCn1cc(CN2CCC3(CC2)OCCO3)c2cc(F)ccc21,3,5,99
CCCCCCCCn1cc(C(=O)N2CCCCCC2)c2cc(F)ccc21,> 50,> 50,99
CCCCCCCCn1cc(CNC2CCCC2)c2cc(F)ccc21,6,21,99
CCCCCCCCn1cc(CN2CCC3(CC2)OCCO3)c2c(F)cccc21,3,6,99
CCCCCCCCn1cc(CN2CCC(C)CC2)c2ccc(OC)cc21,3,5,99
CCCCNC(=O)Cn1cc(CN2CCCCC2)c2cc(F)ccc21,> 50,> 50,99
CCCCCCCCn1cc(CN2CCCCC2)c2cc(F)ccc21,6,11,99
CC(C)=CCC/C(C)=C/Cn1cc(C(=O)N2CCCCC2)c2cc(F)ccc21,> 50,> 50,99
CCCCCCCCn1cc(CN(CCC)CCC)c2cc(F)ccc21,11,35,99
CCCCCCCCn1cc(CN2CCCCCC2)c2cccc(F)c21,5,8,99
CCCCCCCCn1cc(CN2CCCCCC2)c2ccc(F)cc21,4,6,99
CCCCCCCCCCn1cc(CN2CCCCCC2)c2c(F)cccc21,10,15,99
CC(C)=CCC/C(C)=C/Cn1cc(CN2CCC3(CC2)OCCO3)c2cc(F)ccc21,5,9,99
CCCN(CCC)Cc1cn(C/C=C(\C)CCC=C(C)C)c2ccc(F)cc12,18,39,99
CCCCCCCCn1cc(CNC23CC4CC(CC(C4)C2)C3)c2ccc(OC)cc21,3,6,99
CCCCCCCCn1cc(CNC2CCCCCC2)c2cc(F)ccc21,3,16,99
CC(C)=CCC/C(C)=C/Cn1cc(CN2CCCCC2)c2cc(F)ccc21,5,11,99
CCN(CC)Cc1cn(C/C=C(\C)CCC=C(C)C)c2ccc(F)cc12,13,24,99
CC(C)=CCC/C(C)=C/Cn1cc(CN2CCCCC2)c2cccnc21,> 50,> 50,99
CCCCCCCCn1ccc2c(F)cccc21,> 50,> 50,99
CCn1cc(CN2CCCCCC2)c2c(F)cccc21,> 50,> 50,99
CCCCCCCCn1ccc2cc(F)ccc21,> 50,> 50,99
CCCCCCCCn1cc(CN2CCCCC2)c2cc(Br)ccc21,5,9,99
CCCCCCCCn1cc(CN2CCCCC2)c2cccc(OC)c21,8,11,99

Structure (SMILES),MIC50 [1] [µM],MIC90 [1] [µM],inhibition of growth at 10 µM [2] [%]
CC(C)=CCC/C(C)=C/Cn1cc(CNC2CCCCCC2)c2cc(F)ccc21,45,50,99
CCCCCCCCn1cc(CN(CC)CCC)c2cc(F)ccc21,7,39,99
CCCCCCCCn1cc(CN2CCCCCC2)c2cccc(OC)c21,6,10,99
CCCCCCCCn1cc(CNC(C)C)c2cc(F)ccc21,12,26,99
CCCCCCCCn1cc(CN2CCC(C)CC2)c2cc(OC)ccc21,4,6,99
COc1ccc2c(c1)c(CN1CCCCC1)cn2C/C=C(\C)CCC=C(C)C,9,12,99
Fc1ccc2c(c1)c(CN1CCCCC1)cn2CCC1CCCCC1,17,27,99
CCCCCCCCn1cc(CNC23CC4CC(CC(C4)C2)C3)c2c(OC)cccc21,6,12,99
CCCCCCCCn1cc(CN2CCN(C)CC2)c2cc(F)ccc21,13,36,99
CC(C)=CCC/C(C)=C/Cn1cc(CNC2CCCC2)c2cc(F)ccc21,8,14,99
Fc1ccc2[nH]cc(CN3CCCCC3)c2c1,> 50,> 50,99
CCCCCCCCn1cc(CN2CCCCC2)c2c(F)cccc21,6,11,99
CCCCCCCCn1cc(CN(CCCC)CCCC)c2cc(F)ccc21,11,> 50,99
CC(C)=CCC/C(C)=C/Cn1cc(CN2CCC(C)CC2)c2cc(F)ccc21,4,6,99
CC(C)=CCC/C(C)=C/Cn1cc(CN2CCSCC2)c2cc(F)ccc21,15,23,99
CCCCCCCCn1cc(CN2CCC(C)CC2)c2c(OC)cccc21,10,18,99
CCCCCCCCn1cc(CN2CCCCC2)c2cccc(F)c21,8,11,99
CCCCCCCCn1cc(CN(CC)CC)c2cc(F)ccc21,10,36,99
CCCCCCCCn1cc(CN2CCCCC2)c2c(OC)cccc21,16,35,99
CCCN(CC)Cc1cn(C/C=C(\C)CCC=C(C)C)c2ccc(F)cc12,13,25,99
CCCCCCCCn1cc(CN2CCC(C)CC2)c2cc(F)ccc21,4,6,99
CCCCCCCCn1cc(CN2CCN(CC)CC2)c2cc(F)ccc21,13,32,99
